Source: patent publication US8071810B2, “C5a receptor antagonists” (Jerini AG, priority 2005, dated 2011)

target: T1, human C5a receptor (CD88) (Homo sapiens, UniProt P21730); test: C5a induced enzyme (glucosaminidase) release assay in RBL cells expressing the human C5a receptor (Example 28); type: cell-based; conditions: RBL cells with human C5aR; read-out: IC50 for the inhibition of C5a induced enzyme release
T1 construct: expressed in transfected cells; host or cells: rat basophilic leukemia (RBL) cells, stably transfected
T1 sequence (P21730 1-350): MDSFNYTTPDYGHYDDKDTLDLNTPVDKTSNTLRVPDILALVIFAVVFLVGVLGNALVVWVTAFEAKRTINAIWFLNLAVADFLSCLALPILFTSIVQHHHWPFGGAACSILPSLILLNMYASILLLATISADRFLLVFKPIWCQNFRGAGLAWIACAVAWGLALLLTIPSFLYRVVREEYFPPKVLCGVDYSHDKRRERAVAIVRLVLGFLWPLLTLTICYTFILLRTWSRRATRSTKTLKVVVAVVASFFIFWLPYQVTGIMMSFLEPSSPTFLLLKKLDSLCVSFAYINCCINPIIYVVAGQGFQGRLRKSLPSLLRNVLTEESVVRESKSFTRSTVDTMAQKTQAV
Description: Basophile leukemia cells from rats (RBL), which express the human C5a receptor (CD88), are cultivated in DMEM with 10% fetal calf serum, 100 U/ml penicillin, 100 μg/ml streptomycin and 2 mM glutamin (all constituents are from Biochrome, Berlin) at 37° C. and with 10% CO2 until a confluent layer is obtained. All following details refer to a tissue culture flask with 75 cm^2 surface. The used up medium is removed. The cells are washed with 10 ml PBS (Dulbecco's PBS, Biochrome) and then covered with 3 ml cell dissociation solution (CDS, Sigma). The cells are incubated for 1 minute at room temperature. Then the CDS is removed and the cells are incubated for further 10-15 minutes at 37° C. to detach the cells completely from the flask. 20 μl solution of the compound to be testet are used in the assay. […] The dilution series are prepared in ⅓ or ½ steps. […] The cells are counted and centrifuged (200 g, 10 min). The cell pellet is taken up with pre-heated HAG-CM, and the cell density is adjusted to 2×10^6 Zellen/ml. The cells are incubated for 5 minutes at 37° C. 2.7 μl of a cytochalasin B solution (1000 μg/ml in DMSO, Sigma) are added per ml cell suspension. The Zellen are incubated for another 3 min at 37° C. Then, 75 μl of the cell suspension are added to the 20 μl solution containing the compounds to be tested. […] The cells are again incubated for 10 minutes at 37° C. […] After this the plates are put on ice and centrifuged for 3 minutes at 1200×g and 4° C. […] The plate is incubated for 1 hour at 37° C. […] The IC50 value is determined by solving the four parameter equation y=((A−D)/(1+(x/C)^B))+D.

Structure (SMILES) | IC50 [nM]
CCc1c(N)cc(Cl)c(CC)c1NC(=O)N(c1ccc(C(C)C)cc1)[C@H](C)c1ccc(OC)cc1 [compound 56, (R)-3-(3-amino-5-chloro-2,6-diethyl-phenyl)-1-(4-isopropyl-phenyl)-1-[1-(4-methoxy-phenyl)ethyl]-urea] | 619
CCc1c(N)cc(Cl)c(CC)c1NC(=O)N(c1ccc(C(C)C)cc1)[C@@H](C)c1ccc(OC)cc1 [compound 66, (S)-3-(3-amino-5-chloro-2,6-diethyl-phenyl)-1-(4-isopropyl-phenyl)-1-[1-(4-methoxy-phenyl)-ethyl]-urea] | 55

same assay, conditions: inhibition of C5a induced enzyme release, RBL cells with human C5aR; read-out: Activity-range (antagonistic activity, IC50 enzyme release)

Structure (SMILES) | IC50 [nM]
CCc1c(Cl)cc(NCC(=O)OC(C)(C)C)c(CC)c1NC(=O)N(Cc1ccc(OC)cc1)c1ccc(C(C)C)cc1 [compound 45, {5-chloro-2,4-diethyl-3-[3-(4-isopropyl-phenyl)-3-(4-methoxy-benzyl)-ureido]-phenylamino} acetic acid tert-butyl ester] | 60 to 200
CCc1c(Cl)cc(NCC(N)=O)c(CC)c1NC(=O)N(Cc1ccc(OC)cc1)c1ccc(C(C)C)cc1 [compound 46, 2-{5-chloro-2,4-diethyl-3-[3-(4-isopropyl-phenyl)-3-(4-methoxy-benzyl)-ureido]-phenylamino}-acetamide] | 200 to 5000
CCc1c(N)cc(Cl)c(CC)c1NC(=O)N(Cc1ccc(OC)nc1)c1ccc(C(C)C)cc1 [compound 47, 3-(3-amino-5-chloro-2,6-diethyl-phenyl)-1-(4-isopropyl-phenyl)-1-(6-methoxy-pyridin-3-ylmethyl)-urea] | 200 to 5000
CCc1ccc(N)c(CC)c1NC(=O)N(Cc1ccc(OC)nc1)c1ccc(C(C)C)cc1 [compound 48, 3-(3-amino-2,6-diethyl-phenyl)-1-(4-isopropyl-phenyl)-1-(6-methoxy-pyridin-3-ylmethyl)-urea] | 200 to 5000
CCc1c(N)cc(Cl)c(CC)c1NC(=O)N(Cc1ccc(C(F)(F)F)cc1)c1ccc(C(C)C)cc1 [compound 49, 3-(3-amino-5-chloro-2,6-diethyl-phenyl)-1-(4-isopropyl-phenyl)-1-(4-trifluormethyl-benzyl)-urea] | 200 to 5000
CCc1ccc(N)c(CC)c1NC(=O)N(Cc1ccc(C(F)(F)F)cc1)c1ccc(C(C)C)cc1 [compound 50, 3-(3-amino-2,6-diethyl-phenyl)-1-(4-isopropyl-phenyl)-1-(4-trifluoromethyl-benzyl)-urea] | 200 to 5000
CCc1ccc(N)c(CC)c1NC(=O)N(CCc1ccccc1)c1ccc(C(C)C)cc1 [compound 51, 3-(3-amino-2,6-diethyl-phenyl)-1-(4-isopropyl-phenyl)-1-phenethyl-urea] | 200 to 5000
CCc1c(N)cc(Cl)c(CC)c1NC(=O)N(CCc1ccc(C)cc1)c1ccc(C(C)C)cc1 [compound 52, 3-(3-amino-5-chloro-2,6-diethyl-phenyl)-1-(4-isopropyl-phenyl)-1-(2-p-tolyl-ethyl)-urea] | 200 to 5000
CCc1ccc(N(Cc2ccc(C)cc2)C(=O)Nc2c(CC)c(N)cc(Cl)c2CC)cc1 [compound 53, 3-(3-amino-5-chloro-2,6-diethyl-phenyl)-1-(4-ethyl-phenyl)-1-(4-methyl-benzyl)-urea] | 60 to 200
CCc1ccc(N(Cc2ccc(C)cc2)C(=O)Nc2c(CC)ccc(N)c2CC)cc1 [compound 54, 3-(3-amino-2,6-diethyl-phenyl)-1-(4-ethyl-phenyl)-1-(4-methyl-benzyl)-urea] | 200 to 5000
CCc1c(Cl)cc(NCC(=O)OC)c(CC)c1NC(=O)N(Cc1ccc(OC)cc1)c1ccc(C(C)C)cc1 [compound 55, {5-chloro-2,4-diethyl-3-[3-(4-isopropyl-phenyl)-3-(4-methoxy-benzyl)-ureido]-phenylamino} acetic acid methyl-ester] | 200 to 5000
CCc1c(N)cc(Cl)c(CC)c1NC(=O)N(c1ccc(C(C)C)cc1)[C@H](C)c1ccc(C)cc1 [compound 57, (R)-3-(3-Amino-5-chloro-2,6-diethyl-phenyl)-1-(4-isopropyl-phenyl)-1-(1-p-tolyl-ethyl)-urea] | 200 to 5000
CCc1c(N)cc(Cl)c(CC)c1NC(=O)N(Cc1ccc(OC)cc1F)c1ccc(C(C)C)cc1 [compound 58, 3-(3-amino-5-chloro-2,6-diethyl-phenyl)-1-(2-fluoro-4-methoxy-benzyl)-1-(4-isopropyl-phenyl)-urea] | 200 to 5000
CCc1ccc(N)c(CC)c1NC(=O)N(Cc1ccc(OC)cc1F)c1ccc(C(C)C)cc1 [compound 59, 3-(3-amino-2,6-diethyl-phenyl)-1-(2-fluoro-4-methoxy-benzyl)-1-(4-isopropyl-phenyl)-urea] | 200 to 5000
CCc1c(N)cc(Cl)c(CC)c1NC(=O)N(CC1CCCCC1)c1ccc(C(C)C)cc1 [compound 60, 3-(3-amino-5-chloro-2,6-diethyl-phenyl)-1-cyclohexylmethyl-1-(4-isopropyl-phenyl)-urea] | 200 to 5000
CCc1ccc(N)c(CC)c1NC(=O)N(CC1CCCCC1)c1ccc(C(C)C)cc1 [compound 61, 3-(3-amino-2,6-diethyl-phenyl)-1-cyclohexylmethyl-1-(4-isopropyl-phenyl)-urea] | 200 to 5000
CCc1c(N)cc(Cl)c(CC)c1NC(=O)N(Cc1ccccc1OC)c1ccc(C(C)C)cc1 [compound 62, 3-(3-amino-5-chloro-2,6-diethyl-phenyl)-1-(4-isopropyl-phenyl)-1-(2-methoxy-benzyl)-urea] | 200 to 5000
CCc1ccc(N)c(CC)c1NC(=O)N(Cc1ccccc1OC)c1ccc(C(C)C)cc1 [compound 63, 3-(3-amino-2,6-diethyl-phenyl)-1-(4-isopropyl-phenyl)-1-(2-methoxy-benzyl)-urea] | 200 to 5000
CCc1c(N)cc(Cl)c(CC)c1NC(=O)N(Cc1ccc(S(C)(=O)=O)cc1)c1ccc(C(C)C)cc1 [compound 64, 3-(3-amino-5-chloro-2,6-diethyl-phenyl)-1-(4-isopropyl-phenyl)-1-(4-methansulfonyl-benzyl)-urea] | 200 to 5000
CCc1c(N)cc(Cl)c(CC)c1NC(=O)N(Cc1ccc2c(c1)CCO2)c1ccc(C(C)C)cc1 [compound 65, 3-(3-amino-5-chloro-2,6-diethyl-phenyl)-1-(2,3-dihydro-benzofuran-5-ylmethyl)-1-(4-isopropyl-phenyl)-urea] | 60 to 200
CCc1ccc(N)c(CC)c1NC(=O)N(Cc1ccc2c(c1)CCO2)c1ccc(C(C)C)cc1 [compound 67, 3-(3-amino-2,6-diethyl-phenyl)-1-(2,3-dihydro-benzofuran-5-ylmethyl)-1-(4-isopropyl-phenyl)-urea] | 200 to 5000
CCc1ccc(N)c(CC)c1NC(=O)N(c1ccc(C(C)C)cc1)[C@H](C)c1ccc(C)cc1 [compound 68, (R)-3-(3-amino-2,6-diethyl-phenyl)-1-(4-isopropyl-phenyl)-1-(1-p-tolyl-ethyl)-urea] | 200 to 5000
CCc1ccc(N)c(CC)c1NC(=O)N(c1ccc(C(C)C)cc1)[C@@H](C)c1ccc(C)cc1 [compound 69, (S)-3-(3-amino-2,6-diethyl-phenyl)-1-(4-isopropyl-phenyl)-1-(1-p-tolyl-ethyl)-urea] | 60 to 200
CCc1ccc(N)c(CC)c1NC(=O)N(c1ccc(C(C)C)cc1)[C@H](C)c1ccc(OC)cc1 [compound 70, (R)-3-(3-amino-2,6-diethyl-phenyl)-1-(4-isopropyl-phenyl)-1-[1-(4-methoxy-phenyl)-ethyl]-urea] | 200 to 5000

same assay, conditions: ratio of enzyme release IC50 values

Structure (SMILES) | Times higher antagonistic activity of S configuration than (R) configuration (56)
CCc1c(N)cc(Cl)c(CC)c1NC(=O)N(c1ccc(C(C)C)cc1)[C@@H](C)c1ccc(OC)cc1 [compound 66, (S)-3-(3-amino-5-chloro-2,6-diethyl-phenyl)-1-(4-isopropyl-phenyl)-1-[1-(4-methoxy-phenyl)-ethyl]-urea] | 11
